The target of assay [1] is T1, rat A1 receptors (rA1) (Rattus norvegicus, UniProt P25099).
T1 construct: to A1 receptors from rat cerebral cortical membranes; from tissue; host or cells: rat cerebral cortical (brain) membranes
T1 sequence (P25099 1-326): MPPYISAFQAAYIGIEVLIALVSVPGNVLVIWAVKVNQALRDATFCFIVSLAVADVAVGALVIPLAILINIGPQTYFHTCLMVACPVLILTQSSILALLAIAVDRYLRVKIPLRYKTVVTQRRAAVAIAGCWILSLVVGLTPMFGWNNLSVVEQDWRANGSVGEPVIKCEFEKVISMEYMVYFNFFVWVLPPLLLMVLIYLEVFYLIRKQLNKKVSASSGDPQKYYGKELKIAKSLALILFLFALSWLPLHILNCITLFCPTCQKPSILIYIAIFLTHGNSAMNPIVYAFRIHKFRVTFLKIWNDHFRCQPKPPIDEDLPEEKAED
Briefly: Displacement of [3H]R-PIA binding in rat brain (cerebral cortical) membranes. The following applies: Table 4; read-out: rA1 Ki.

Assay [2] deals with T2, rat A2A receptors (rA2A) (Rattus norvegicus, UniProt P30543).
T2 construct: to A2A receptors from rat striatal membranes was performed as described; from tissue; host or cells: rat striatal membranes
Briefly: Displacement of [3H]CGS 21680 binding in rat striatal membranes. As to conditions: Table 4; read-out: rA2A Ki. On the technique in general: Loss of bound radioactivity is the signal in a displacement assay; it reports binding, not function.

Assay [3] deals with T3, human A2B receptors (hA2B) (Homo sapiens, UniProt P29275).
T3 construct: expressed in transfected cells; host or cells: HEK-293 (HEK-A2B, G418-selected)
T3 sequence (P29275 1-332): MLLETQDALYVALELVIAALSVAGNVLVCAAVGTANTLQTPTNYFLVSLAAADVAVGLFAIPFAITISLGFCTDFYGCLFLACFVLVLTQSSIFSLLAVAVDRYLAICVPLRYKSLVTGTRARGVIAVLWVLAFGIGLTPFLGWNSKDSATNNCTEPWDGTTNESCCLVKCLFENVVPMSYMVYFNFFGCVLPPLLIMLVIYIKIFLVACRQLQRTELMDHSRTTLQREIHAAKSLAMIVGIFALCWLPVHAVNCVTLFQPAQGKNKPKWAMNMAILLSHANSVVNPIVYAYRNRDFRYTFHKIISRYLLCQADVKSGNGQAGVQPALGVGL
Briefly: Radioligand binding ([125I]ABOPX / [3H]ZM241385) at human A2B receptors expressed in HEK-293 cells. The following applies: for rA1/hA2B: Ki ratio.

In assay [4] the target is T4, human A3 receptors (hA3) (Homo sapiens, UniProt P0DMS8).
T4 construct: expressed in transfected cells; host or cells: HEK-293
T4 sequence (P0DMS8 1-318): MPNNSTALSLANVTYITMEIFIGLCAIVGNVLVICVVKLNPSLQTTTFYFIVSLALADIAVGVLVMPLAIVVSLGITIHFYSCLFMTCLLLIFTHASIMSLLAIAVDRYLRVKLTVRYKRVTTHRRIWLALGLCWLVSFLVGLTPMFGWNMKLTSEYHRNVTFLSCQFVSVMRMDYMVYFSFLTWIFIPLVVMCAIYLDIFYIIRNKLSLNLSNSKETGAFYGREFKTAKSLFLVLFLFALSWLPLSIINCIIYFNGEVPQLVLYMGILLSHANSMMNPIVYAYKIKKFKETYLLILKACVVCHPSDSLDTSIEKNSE
The assay can be described thus: Displacement of [125I]AB-MECA binding at human A3 receptors expressed in HEK-293 cells (Table 4).

In assay [5] the target is T5, recombinant human A1 receptors (hA1) (Homo sapiens, UniProt P30542).
T5 sequence (P30542 1-326): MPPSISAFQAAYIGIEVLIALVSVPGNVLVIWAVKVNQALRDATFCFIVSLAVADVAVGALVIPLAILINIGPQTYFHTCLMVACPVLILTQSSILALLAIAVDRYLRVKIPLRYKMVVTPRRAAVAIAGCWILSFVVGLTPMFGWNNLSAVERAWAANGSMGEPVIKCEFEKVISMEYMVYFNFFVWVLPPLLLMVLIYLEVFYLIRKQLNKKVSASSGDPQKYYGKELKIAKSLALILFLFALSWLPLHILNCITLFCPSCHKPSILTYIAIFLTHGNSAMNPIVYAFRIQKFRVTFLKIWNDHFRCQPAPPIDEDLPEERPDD
Briefly: Radioligand binding ([3H]CPX) at recombinant human A1 receptors in HEK-293 cells. The following applies: read-out: hA1 Ki, values marked (h)^a; Table 4; vs [3H]CPX, HEK-293.

In assay [6] the target is recombinant human A2A receptors (hA2A) (Homo sapiens, UniProt P29274). The assay can be described thus: Radioligand binding (125I-ZM241385) at recombinant human A2A receptors in HEK-293 cells. As to conditions: read-out: hA2A Ki, values marked (h)^a; Table 4; vs [125I]ZM241385, HEK-293.
Experimental: All non-radioactive compounds were initially dissolved in DMSO, and diluted with buffer to the final concentration, where the amount of DMSO never exceeded 2%. Incubations were terminated by rapid filtration over Whatman GF/B filters, using a Brandell cell harvester (Brandell, Gaithersburg, Md.). The tubes were rinsed three times with 3 mL buffer each.
At least six different concentrations of competitor, spanning 3 orders of magnitude adjusted appropriately for the IC50 of each compound, were used. IC50 values, calculated with the nonlinear regression method implemented in (Graph-Pad Prism, San Diego, Calif.), were converted to apparent Ki values as described.
The potency of the xanthine derivatives at human A2B receptors was evaluated using two binding assays. […] In order to determine selectivity, the xanthines were evaluated using standard binding assays at A1, A2A, and A3 receptors.
The mark [7] stands for this setting: Table 4, unmarked value, first of two binding assays, read-out: hA2B Ki.

Like-named read-outs stand apart in the source and are kept apart here.

T2 sequence (P30543 whole entry): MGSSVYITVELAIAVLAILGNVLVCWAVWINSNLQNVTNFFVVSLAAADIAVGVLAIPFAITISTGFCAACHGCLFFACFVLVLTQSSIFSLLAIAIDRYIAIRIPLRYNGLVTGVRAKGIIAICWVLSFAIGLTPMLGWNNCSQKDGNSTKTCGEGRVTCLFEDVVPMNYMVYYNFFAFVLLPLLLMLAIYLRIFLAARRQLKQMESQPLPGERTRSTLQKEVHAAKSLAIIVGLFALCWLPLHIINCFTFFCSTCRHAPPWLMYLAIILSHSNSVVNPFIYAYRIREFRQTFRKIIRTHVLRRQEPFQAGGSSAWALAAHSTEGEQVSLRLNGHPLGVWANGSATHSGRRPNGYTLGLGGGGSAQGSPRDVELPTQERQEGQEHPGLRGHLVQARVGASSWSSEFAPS
Sequence of recombinant human A2A receptors (hA2A) (P29274 whole entry): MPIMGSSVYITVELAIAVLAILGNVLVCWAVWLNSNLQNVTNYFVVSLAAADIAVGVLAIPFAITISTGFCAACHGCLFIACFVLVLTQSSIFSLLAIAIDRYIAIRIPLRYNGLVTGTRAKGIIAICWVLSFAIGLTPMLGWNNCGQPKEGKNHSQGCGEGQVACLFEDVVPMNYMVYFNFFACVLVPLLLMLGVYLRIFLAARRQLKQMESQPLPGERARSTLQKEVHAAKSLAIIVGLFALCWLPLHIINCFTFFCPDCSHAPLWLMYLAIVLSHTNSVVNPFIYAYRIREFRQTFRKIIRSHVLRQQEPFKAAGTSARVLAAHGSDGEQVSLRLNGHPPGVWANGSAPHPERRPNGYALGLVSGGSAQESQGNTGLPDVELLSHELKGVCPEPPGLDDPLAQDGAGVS

Take `CCCn1c(=O)c2[nH]c(-c3ccc(OCC(=O)NNC(=O)CCC(=O)O)cc3)nc2n(CCC)c1=O` [Compound 42, 8-[4-[(Carboxymethyl)oxy]phenyl]-1,3-di-(n-propyl)xanthine N-[(3-Carboxy)-n-propionyl]hydrazide]: the Ki in assay [1] is 73.3 ± 22 nM; in assay [2] it was 174 ± 32 nM; in assay [3] (Table 4, footnote a: [125I]-ABOPX, read-out: hA2B Ki (value marked ^a) (converted)), 97.8 nM; in assay [3] (setting [7]), 116 ± 10 nM; in assay [4], 173 ± 27 nM; in assay [5] it was 219 nM. In addition, the Ki in assay [6] was 795 nM. In addition, the rA1/hA2B in assay [3] (Table 4) amounted to 1.6.

With `CCCn1c(=O)c2[nH]c(-c3ccc(OCC(=O)NN4C(=O)CCC4=O)cc3)nc2n(CCC)c1=O` [Compound 43, 8-[4-[(Carboxymethyl)oxy]phenyl]-1,3-di-(n-propyl)xanthine N,N-Succinylhydrazide], the Ki was 55.9 ± 25.1 nM in assay [1]; 805 ± 44 nM in assay [2]; 18.6 ± 6.1 nM in assay [3] (setting [7]); 766 ± 176 nM in assay [4]; 75.2 nM in assay [5]; 27.2 nM in assay [6]. Also, the rA1/hA2B in assay [3] (Table 4) is given as 3.0.

For `CCCn1c(=O)c2[nH]c(-c3ccc(OCC(=O)NN4C(=O)C[C@H](NC(=O)C(F)(F)F)C4=O)cc3)nc2n(CCC)c1=O` [Compound 44, 8-[4-[(Carboxymethyl)oxy]phenyl]-1,3-di-(n-propyl)xanthine N,N-[((2S)-Trifluoroacetamido)succinyl]hydrazide], the Ki turned out to be 74.3 ± 6.6 nM in assay [1], 139 ± 32 nM in assay [2], 30.2 ± 0.5 nM in assay [3] (setting [7]) and 1560 nM in assay [4]. For the same molecule, the rA1/hA2B in assay [3] (Table 4) was 2.5.

Turning to `CCCn1c(=O)c2[nH]c(-c3ccc(OCC(=O)NN4C(=O)CCC(c5ccccc5)C4=O)cc3)nc2n(CCC)c1=O` (stereo not shown) [Compound 45, 8-[4-[(Carboxymethyl)oxy]phenyl]-1,3-di-(n-propyl)xanthine N,N-[(2-Phenyl)glutaryl]hydrazide], the Ki was 3.87 ± 1.2 nM in assay [1], 21.4 ± 6.1 nM in assay [2], 3.86 ± 0.7 nM in assay [3] (setting [7]) and 151 ± 99 nM in assay [4]. The rA1/hA2B in assay [3] (Table 4) was 1.0.

For the molecule `CCCn1c(=O)c2[nH]c(-c3ccc(OCC(=O)NN4C(=O)C=C(C)C4=O)cc3)nc2n(CCC)c1=O` [Compound 46, 8-[4-[(Carboxymethyl)oxy]phenyl]-1,3-di-(n-propyl)xanthine N,N-Citraconylhydrazide], the Ki in assay [1] was found to be 203 ± 41 nM; in assay [2], 1230 ± 270 nM; in assay [3] (setting [7]), 144 ± 11 nM; in assay [4], 551 ± 106 nM. In addition, in assay [3] (Table 4), the rA1/hA2B is on record as 1.4.

Turning to `CCCn1c(=O)c2[nH]c(-c3ccc(OCC(=O)NN4C(=O)C=C(c5ccccc5)C4=O)cc3)nc2n(CCC)c1=O` [Compound 49, 8-[4-[(Carboxymethyl)oxy]phenyl]-1,3-di-(n-propyl)xanthine N,N-[(2-Phenyl)maleyl]hydrazide], the Ki was 225 ± 76 nM in assay [1], 1540 ± 280 nM in assay [2], 66.7 ± 37 nM in assay [3] (setting [7]) and 748 ± 234 nM in assay [4]. Moreover, the rA1/hA2B in assay [3] (Table 4) turned out to be 3.4.

With `CCCn1c(=O)c2[nH]c(-c3ccc(OCC(=O)NN4C(=O)C(c5ccccc5)=C(c5ccccc5)C4=O)cc3)nc2n(CCC)c1=O` [Compound 50, 8-[4-[(Carboxymethyl)oxy]phenyl]-1,3-di-(n-propyl)xanthine N,N-[(1,2-Diphenyl)maleyl]hydrazide], the Ki in assay [1] amounted to 95.8 ± 25.1 nM; in assay [2], 2100 ± 630 nM; in assay [3] (setting [7]), 27.9 ± 8.5 nM; in assay [4] it was 3450 ± 1470 nM. For the same molecule, in assay [3] (Table 4), the rA1/hA2B turned out to be 3.4.

Take `CCCn1c(=O)c2[nH]c(-c3ccc(OCC(=O)NNC(=O)C4CC=CCC4C(=O)O)cc3)nc2n(CCC)c1=O` (stereo not drawn) [Compound 51, 8-[4-[(Carboxymethyl)oxy]phenyl]-1,3-di-(n-propyl)xanthine N-[2-((1-Carboxy)-cis-4-cyclohexene)-carbonyl]hydrazide]: the Ki amounted to 134 ± 19 nM in assay [1], 813 ± 299 nM in assay [2], 51 ± 7 nM in assay [3] (setting [7]) and 1060 ± 150 nM in assay [4]. The rA1/hA2B in assay [3] (Table 4) was determined as 2.6.

As for `CCCn1c(=O)c2[nH]c(-c3ccc(OCC(=O)NNC(=O)C4=C(C(=O)O)CCC4)cc3)nc2n(CCC)c1=O` [Compound 53, 8-[4-[(Carboxymethyl)oxy]phenyl]-1,3-di-(n-propyl)xanthine N-[2-((1-Carboxy)-1-cyclopentene)-carbonyl]hydrazide], the Ki in assay [1] amounted to 81.7 ± 31.2 nM; in assay [2], 708 ± 169 nM; in assay [3] (setting [7]) it was 78.5 ± 20.5 nM; in assay [4], 1180 ± 700 nM. Further, the rA1/hA2B in assay [3] (Table 4) amounted to 1.0.

`CCCn1c(=O)c2[nH]c(-c3ccc(OCC(=O)NN4C(=O)C5=C(CCC5)C4=O)cc3)nc2n(CCC)c1=O` [Compound 54, 8-[4-[(Carboxymethyl)oxy]phenyl]-1,3-di-(n-propyl)xanthine N,N-(1-Cyclopentene-1,2-dicarbonyl)hydrazide]: the Ki in assay [1] was 41.3 ± 6.4 nM; in assay [2] it was 1160 ± 337 nM; in assay [3] (setting [7]), 21.5 ± 1.5 nM; in assay [4], 309 ± 88 nM. In assay [3] (Table 4), the rA1/hA2B is 1.9.

Regarding `CCCn1c(=O)c2[nH]c(-c3ccc(OCC(=O)NN4C(=O)C5=C(CCCC5)C4=O)cc3)nc2n(CCC)c1=O` [Compound 56, 8-[4-[(Carboxymethyl)oxy]phenyl]-1,3-di-(n-propyl)xanthine N,N-(3,4,5,6-Tetrahydrophthaloyl)hydrazide], the Ki is 61.9 ± 11.3 nM in assay [1], 415 ± 157 nM in assay [2], 35.8 ± 0.7 nM in assay [3] (setting [7]) and 245 ± 45 nM in assay [4]. The rA1/hA2B in assay [3] (Table 4) came out at 1.7.

Take `CCCn1c(=O)c2[nH]c(-c3ccc(OCC(=O)NN4C(=O)CCCC4=O)cc3)nc2n(CCC)c1=O` [Compound 58, 8-[4-[(Carboxymethyl)oxy]phenyl]-1,3-di-(n-propyl)xanthine N,N-Glutarylhydrazide]: the Ki in assay [1] was found to be 14 ± 2.3 nM; in assay [2], 135 ± 39 nM; in assay [3] (setting [7]), 22 ± 5.5 nM; in assay [4], 200 ± 45 nM. The rA1/hA2B in assay [3] (Table 4) amounted to 0.6.

Consider `CCCn1c(=O)c2[nH]c(-c3ccc(OCC(=O)NN4C(=O)CC(O)CC4=O)cc3)nc2n(CCC)c1=O` [Compound 59, 8-[4-[(Carboxymethyl)oxy]phenyl]-1,3-di-(n-propyl)xanthine N,N-(3-Hydroxy)glutarylhydrazide], for which the Ki in assay [1] worked out at 41.2 ± 16.6 nM; in assay [2], 164 ± 61 nM; in assay [3] (setting [7]) it was 25.7 ± 5.5 nM; in assay [4], 290 ± 88 nM. In assay [3] (Table 4), the rA1/hA2B stood at 1.6.

For the molecule `CCCn1c(=O)c2[nH]c(-c3ccc(OCC(=O)NNC(=O)[C@H](CCC(=O)O)NC(=O)C(F)(F)F)cc3)nc2n(CCC)c1=O` [Compound 60, 8-[4-[(Carboxymethyl)oxy]phenyl]-1,3-di-(n-propyl)xanthine N-[(4-Carboxy-(2S)-Trifluoroacetamido)-n-butanoyl]hydrazide], the Ki in assay [1] was 70.8 ± 30.9 nM; in assay [2] it was 872 ± 412 nM; in assay [3] (setting [7]), 24.8 ± 7.3 nM; in assay [3] (read-out: Ki value at human A2B receptors), 25 nM; in assay [4], 430 ± 44 nM. The rA1/hA2B in assay [3] (Table 4) is reported as 2.9.

For orientation: Ki means the dissociation constant of the complex between target and ligand, obtained from inhibition or displacement.

(Values after US6545002B1 (University of Virginia Patent Foundation, priority 1999, dated 2003).)
